Laboratory results as given in patent publication US20040019080A1, “Prevention and treatment of migraine and other recurrent headaches using leukotriene LTD4 receptor blocker drugs” (priority 1998, published 2004).
Entries after “also recorded” stand apart in the source; their conditions may differ. Read-outs that look alike come from different tables or passages of the source.

Assays:
asthma patients [1] = conditions: cited from earlier work
asthma patients [2] = conditions: cited from earlier work; for safety and tolerability in chronic use: used every day over a continuous period of years
[3] = test system: patients who suffered from migraine without aura; assay: Open-label clinical trial of daily montelukast in long-term migraine sufferers
LTD4 receptors = target: T1, LTD4 receptors (Homo sapiens, UniProt Q9Y271); conditions: cited from earlier work
T1 sequence (Q9Y271 1-337): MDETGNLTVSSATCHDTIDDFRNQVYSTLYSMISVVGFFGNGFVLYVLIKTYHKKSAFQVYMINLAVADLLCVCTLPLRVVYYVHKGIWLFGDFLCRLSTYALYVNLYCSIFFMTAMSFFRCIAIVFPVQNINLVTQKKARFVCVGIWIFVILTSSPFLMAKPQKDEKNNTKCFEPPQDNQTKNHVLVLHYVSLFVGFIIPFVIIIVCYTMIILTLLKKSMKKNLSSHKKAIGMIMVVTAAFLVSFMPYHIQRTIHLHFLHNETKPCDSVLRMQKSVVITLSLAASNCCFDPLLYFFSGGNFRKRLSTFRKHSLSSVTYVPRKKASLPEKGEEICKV

LTE4 receptors = conditions: cited from earlier work
LTC4 receptors = conditions: cited from earlier work
patients with migraines = assay: Post-publication and unsolicited patient/physician reports, chronic and emergent migraine treatment; format: in vivo, human; conditions: unsolicited letters, comments, website posting
Description: The Applicant herein (Sheftell) initially published their leukotriene-migraine findings in abstract form and as a poster session in mid-1999, at a conference of physicians who specialize in treating headaches. That presentation was summarized shortly thereafter in Family Practice News, a newsletter for physicians, and it was followed in February 2000 by a full article in a refereed journal (Sheftell et al, “Montelukast in the prophylaxis of migraine: “potential role for leukotriene modifiers,” Headache 40: 158-63 (2000)).

SMILES | asthma patients reporting headaches (asthma patients [1]; nearly 2000 asthma patients tested) | safety and tolerability in chronic use (asthma patients [2]) | adverse events reported by patients ([3]; 3-month treatment, 17 patients) | patients reporting a decrease in the number of moderate headaches ([3]; all reporting patients) | number of mild headaches reported during treatment ([3]; mild category, baseline 1.53, mean per month (FIG. 2)) | mean number of moderate attacks per month during treatment ([3]; moderate category, baseline 5.5, not statistically significant) | patients showing a greater than 60% reduction in the frequency of severe attacks ([3]; montelukast 10 mg tablets daily, 3-month treatment vs 2-month baseline, 17 patients) | patients with reduction in frequency of severe attacks after dose escalation ([3]; of 4 patients escalated from 10 mg once daily to 10 mg twice daily) | patients with a 33% or greater reduction in the frequency of severe attacks ([3]; of the remaining 15 patients) | mean number of severe attacks per month during treatment ([3]; severe category, baseline 2.78, p<0.025) | asthma patients reporting headaches (asthma patients [1]; more than 4000 asthma patients tested) | time of daily oral ingestion before noticeable effects in reducing the frequency of asthma attacks (asthma patients [2]; tablets, daily oral) | blocking / activity at LTD4 receptors (LTD4 receptors) | blocking / activity at LTE4 receptors (LTE4 receptors) | blocking of LTC4 receptors (LTC4 receptors) | reported outcome of chronic daily use for migraines (patients with migraines) | users reporting headaches as unwanted side effect (asthma patients [1]; zileuton 4 times daily at 600 mg, placebo 24.0%)
CC(C)(O)c1ccccc1CC[C@@H](SCC1(CC(=O)O)CC1)c1cccc(/C=C/c2ccc3ccc(Cl)cc3n2)c1 [montelukast] | 18.4% | generally safe, well-tolerated, and free of serious side effects | no adverse events were reported; also recorded: None of the patients reported any adverse effects | 70% | 2.02 | 4.68 attacks per month | 41% | 4 patients | 13 patients | 1.31 attacks per month |  |  |  |  |  |  | 
COc1cc(C(=O)NS(=O)(=O)c2ccccc2C)ccc1Cc1cn(C)c2ccc(NC(=O)OC3CCCC3)cc12 [zafirlukast] |  | generally safe, well-tolerated, and free of serious side effects |  |  |  |  |  |  |  |  | 12.9% | about 4 weeks | appear to block; also recorded: some level of activity | appear to block; also recorded: some level of activity | do not appear to block | benefitted more from that treatment than from any other treatment | 
CC(c1cc2ccccc2s1)N(O)C(N)=O (stereo not drawn) [zileuton] |  |  |  |  |  |  |  |  |  |  |  |  |  |  |  |  | 24.6%
